Measurements as given in patent EP0558321A1 (priority 1992, dated 1993).
Counter-ions that a name gives are not always drawn. Like-named read-outs stand apart in the source and are kept apart here.

Experiments:
influenza virus [1] = details: from "Acta Virol.", 28, pp. 501-507 (1984); cited from earlier work
influenza A virus = details: prior art statement; cited from earlier work
influenza B virus = details: prior art statement; cited from earlier work
influenza virus [2] = details: prior art statement; clinical efficacy not yet verified; cited from earlier work
herpes virus = details: from "J. Gen. Virol.", 67, pp. 1115-1122 (1986); cited from earlier work
HSV-1 (Miyama strain) = assay: microbe, parasite or virus in culture; assay type: cell-based, herpes simplex virus type 1
[3] = system: influenza virus (A/PR/8 strain); assay: microbe, parasite or virus in culture; assay type: cell-based; details: unidentified influenza virus, PR/8, MDCK, read-out: Antiviral Activitiy (ΔTCID₅₀)(log₁₀)
[4] = Human alphaherpesvirus 1, GMK, read-out: Antiviral Activity (ΔTCID₅₀)(log₁₀), compound concentration 10 µg/ml, GMK cells
[5] = compound concentration 10 µg/ml, GMK cells
[6] = compound concentration 50 µg/ml, GMK cells
[7] = Human alphaherpesvirus 1, GMK, read-out: Antiviral Activity (ΔTCID₅₀)(log₁₀)
[8] = Human alphaherpesvirus 1, GMK, read-out: Antiviral Activity (ΔTCID₅₀)(log₁₀), compound concentration 5 µg/ml, GMK cells
[9] = Human alphaherpesvirus 1, GMK, read-out: Antiviral Activity (ΔTCID₅₀)(log₁₀), compound concentration 20 µg/ml, GMK cells

| Molecule | log reduction at 10 µg/mL (HSV-1 (Miyama strain); [4]) | log reduction at 10 µg/mL [3] | cytotoxicity (GMK cells) | log reduction at 5 µg/mL [3] | also measured |
| --- | --- | --- | --- | --- | --- |
| OC(CCN1CCCCC1)(c1ccccc1)C1CC2C=CC1C2 (centres unmarked) [Akineton] | – | – | – | – | anti influenza virus action (influenza virus [1]): confirmed to have an anti influenza virus action |
| NC12CC3CC(CC(C3)C1)C2 [Amantadine] | – | – | – | – | efficacy against influenza A virus (influenza A virus): efficacious against influenza A virus; efficacy against influenza B virus (influenza B virus): not against influenza B virus |
| N#C[N-]c1nncs1.[Na+] [LY253963] | – | – | – | – | activity against influenza virus in animal tests (influenza virus [2]): resistant to influenza virus in animal tests |
| OC(CCN1CCCCC1)(c1ccccc1)C1C2CC3C(C2)C31 (centres unmarked) [Norakin] | – | – | – | – | anti influenza virus action (influenza virus [1]): confirmed to have an anti influenza virus action; anti-viral activity against herpes virus (herpes virus): lack in anti-viral activity against herpes virus |
| OC(CCN1CCCCC1)(c1ccccc1)C1C2CC3C(C2)C31 (stereo not drawn) [Prep. Ex. 1, (1R*)-1-phenyl-3-piperidino-1-((3'S*)-3-tricyclo[2.2.1.0]heptyl)propan-1-ol hydrochloride] | 0.83 | 0.44 | – | – | log reduction at 50 µg/mL (HSV-1 (Miyama strain); Human alphaherpesvirus 1, GMK, read-out: Antiviral Activity (ΔTCID₅₀)(log₁₀), compound concentration 50 µg/ml, GMK cells): > 3; log reduction at 20 µg/mL [3]: > 3.17 |
| OC(c1ccccc1)(C1C2CC3C(C2)C31)C12CCCN1CCC2 (stereo not drawn) [Prep. Ex. 3, (1R*)-1-(1-azabicyclo[3.3.0]octan-5-yl)1-phenyl-1-[(3'S*)-3-tricyclo[2.2.1.0]heptyl]methan-1-ol hydrochloride] | – | – | – | – | Antiviral Activity (ΔTCID₅₀)(log₁₀) (HSV-1 (Miyama strain); [5]): 0.00 (-) log₁₀; Antiviral Activity (ΔTCID₅₀)(log₁₀) (HSV-1 (Miyama strain); [6]): >3.00 (-) log₁₀ |
| CC(C(O)(c1ccccc1)C1C2CC3C(C2)C31)C12CCCN1CCC2 (centres unmarked) [Prep. Ex. 6, 2-(1-azabicyclo[3.3.0]octan-5-yl)-1-phenyl-1-(3-tricyclo [2.2.1.0]heptyl)propan-1-ol] | – | – | – | – | Antiviral Activity (ΔTCID₅₀)(log₁₀) (HSV-1 (Miyama strain); [5]): 1.00 (±) log₁₀ |
| OC(c1ccccc1)(C1C2CC3CC(C2)CC1C3)C12CCCN1CCC2 (centres unmarked) [Prep. Ex. 8, 1-(1-azabicyclo[3.3.0]octan-5-yl)-1-phenyl-1-(2-tricyclo[3.3. 1.1^3.7]decyl)methan-1-ol] | – | 0.67 | – | – | log reduction at 5 µg/mL (HSV-1 (Miyama strain); [7]): 0.5; log reduction at 10 µg/mL (HSV-1 (Miyama strain); [7]): 0.66; log reduction at 20 µg/mL (HSV-1 (Miyama strain); [7]): 2.66; log reduction at 20 µg/mL [3]: > 3.5 |
| OC(c1ccc2ccccc2c1)(C1C2CC3CC(C2)CC1C3)C12CCCN1CCC2 (centres unmarked) [Prep. Ex. 9, 1-(1-azabicyclo[3.3.0]octan-5-yl)-1-(2-naphthyl)-1-(2-tricyclo [3.3.1.1^3.7]decyl)methan-1-ol] | 2.17 | – | 2.17 (-) | – | log reduction at 5 µg/mL (HSV-1 (Miyama strain); [8]): 1.17 |
| OC(c1ccc(F)cc1)(C1C2CC3CC(C2)CC1C3)C12CCCN1CCC2 (centres unmarked) [Prep. Ex. 10, 1-(1-azabicyclo[3.3.0]octan-5-yl)-1-(4-fluoropheyl)-1-(2-tricyclo [3.3.1.1^3.7]decyl)methan-1-ol] | 1.17 | > 3.17 | – | 2 | Antiviral Activity (ΔTCID₅₀)(log₁₀) (HSV-1 (Miyama strain); compound concentration 5 µg/ml, GMK cells): 0.83 (-) log₁₀ |
| OC(c1ccc(F)cc1)(C1C2CC3CC(C2)CC1C3)C12CCCN1CCC2 (centres unmarked) [Prep. Ex. 11, 1-(1-azabicyclo[3.3.0]octan-5-yl)-1-(4-fluoropheyl)-1-(2-tricyclo [3.3.1.1^3.7]decyl)methan-1-ol hydrochloride] | – | – | – | – | Antiviral Activity (ΔTCID₅₀)(log₁₀) (HSV-1 (Miyama strain); compound concentration 5 µg/ml, GMK cells, hydrochloride): 0.00 (-) log₁₀ |
| CN(C)c1ccc(C(O)(C2C3CC4CC(C3)CC2C4)C23CCCN2CCC3)cc1 (centres unmarked) [Prep. Ex. 13, 1-(1-azabicyclo[3.3.0]octan-5-yl)-1-(4-dimethylaminophenyl)-1-(2-tricyclo[3.3.1.1^3.7]decyl)methan-1-ol dihydrochloride] | 0.77 | 0.17 | – | – | cytotoxicity (MDCK cells): 0.17 (+); log reduction at 20 µg/mL (HSV-1 (Miyama strain); [9]): 3 |
| COc1ccc(C(O)(C2C3CC4CC(C3)CC2C4)C23CCCN2CCC3)cc1 (centres unmarked) [Prep. Ex. 15, 1-(1-azabicyclo[3.3.0]octan-5-yl)-1-(4-methoxyphenyl)-1-(2-tricyclo[3.3.1.1^3.7]decyl)methan-1-ol hydrochloride] | 0.67 | > 2.17 | 0.67 (-) | 0 | log reduction at 20 µg/mL [3]: > 3.5 |
| OC(c1ccc(C(F)(F)F)cc1)(C1C2CC3CC(C2)CC1C3)C12CCCN1CCC2 (centres unmarked) [Prep. Ex. 17, 1-(1-azabicyclo[3.3.0]octan-5-yl)-1-(4-trifluoromethylphenyl)-1-(2-tricyclo[3.3.1.1³^.7]decyl)methan-1-ol hydrochloride] | 0.33 | 0.33 | 0.33 (-) | 0.33 | log reduction at 20 µg/mL (HSV-1 (Miyama strain); [9]): 0.33; log reduction at 20 µg/mL [3]: 0.33 |
| COc1cccc(C(O)(C2C3CC4CC(C3)CC2C4)C23CCCN2CCC3)c1 (centres unmarked) [Prep. Ex. 19, 1-(1-azabicyclo[3.3.0]octan-5-yl)-1-(3-methoxyphenyl)-1-(2-tricyclo[3.3.1.1³^.7]decyl)methan-1-ol hydrochloride] | 0 | 0.17 | – | 0 | log reduction at 20 µg/mL (HSV-1 (Miyama strain); [9]): > 2; log reduction at 20 µg/mL [3]: > 3.17 |
| OC(c1cccc(C(F)(F)F)c1)(C1C2CC3CC(C2)CC1C3)C12CCCN1CCC2 (centres unmarked) [Prep. Ex. 21, 1-(1-azabicyclo[3.3.0]octan-5-yl)-1-(3-trifluoromethylphenyl)-1-(2-tricyclo[3.3.1.1^3.7]decyl)methan-1-ol hydrochloride] | 0.33 | 0.27 | – | 0 | log reduction at 5 µg/mL (HSV-1 (Miyama strain); [8]): 0.5 |
| COc1ccccc1C(O)(C1C2CC3CC(C2)CC1C3)C12CCCN1CCC2 (centres unmarked) [Prep. Ex. 23, 1-(1-azabicyclo[3.3.0]octan-5-yl)-1-(2-methoxyphenyl)-1-(2-tricyclo[3.3.1.1^3.7]decyl)methan-1-ol hydrochloride] | 0.17 | – | 0.17 (+) | – | – |
| Cc1ccccc1C(O)(C1C2CC3CC(C2)CC1C3)C12CCCN1CCC2 (centres unmarked) [Prep. Ex. 25, 1-(1-azabicyclo[3.3.0]octan-5-yl)-1-(2-methylphenyl)-1-(2-tricyclo[3.3.1.1^3.7]decyl)methan-1-ol hydrochloride] | > 3 | – | >3.00 (+) | – | – |
| Cc1ccc(C(O)(C2C3CC4CC(C3)CC2C4)C23CCCN2CCC3)cc1 (centres unmarked) [Prep. Ex. 27, 1-(1-azabicyclo[3.3.0]octan-5-yl)-1-(4-methylphenyl)-1-(2-tricyclo-[3.3.1.1^3.7]decyl)methan-1-ol hydrochloride] | 2.17 | 0.17 | – | 0.17 | log reduction at 20 µg/mL (HSV-1 (Miyama strain); [9]): > 3; log reduction at 20 µg/mL [3]: 2.17 |
| OC(c1ccc(-c2ccccc2)cc1)(C1C2CC3CC(C2)CC1C3)C12CCCN1CCC2 (centres unmarked) [Prep. Ex. 29, 1-(1-azabicyclo[3.3.0]octan-5-yl)-1-(4-biphenyl)-1-(2-tricyclo[3.3.1.1^3.7]decyl)methan-1-ol hydrochloride] | > 3.17 | > 3 | >3.17 (+) | > 3 | cytotoxicity (MDCK cells): >3.00 (+) |
| CC1(c2ccc(C(O)(C3C4CC5CC(C4)CC3C5)C34CCCN3CCC4)cc2)OCCS1 (centres unmarked) [Prep. Ex. 30, 1-(1-azabicyclo[3.3.0]octan-5-yl)-1-(4-(2-methyl-1,3-thioxolane-2-yl)phenyl)-1-(2-tricyclo[3.3.1.1^3.7]decyl)methan-1-ol] | > 3.17 | > 3 | >3.17 (+) | > 3 | cytotoxicity (MDCK cells): >3.00 (+) |
| CC(=O)c1ccc(C(O)(C2C3CC4CC(C3)CC2C4)C23CCCN2CCC3)cc1 (centres unmarked) [Prep. Ex. 32, 1-(4-acetylphenyl)-1-(1-azabicyclo[3.3.0]octan-5-yl)-1-(2-tricyclo[3.3.1.1³^.7]decyl)methan-1-ol hydrochloride] | 0.33 | 1 | 0.33 (+) | 0.5 | log reduction at 20 µg/mL [3]: 1.16 |
| CC(N)C12CC3CC(CC(C3)C1)C2 (centres unmarked) [remantadine, Remantadine] | – | – | – | – | efficacy against influenza A virus (influenza A virus): efficacious against influenza A virus; efficacy against influenza B virus (influenza B virus): not against influenza B virus |
| (1R*)-1-(1-azabicyclo[3.3.0]octan-5-yl)-1-phenyl-1-((3'R*)-3-tricyclo[2.2.1.0]heptyl)methanol hydrochloride [Prep. Ex. 4] | – | – | – | – | Antiviral Activity (ΔTCID₅₀)(log₁₀) (HSV-1 (Miyama strain); [5]): 0.66 (-) log₁₀; Antiviral Activity (ΔTCID₅₀)(log₁₀) (HSV-1 (Miyama strain); [6]): 1.33 (±) log₁₀ |
| (1R*)-1-phenyl-3-piperidino-1-((3'R*)-3-tricyclo[2.2.1.0] heptyl)propan-1-ol hydrochloride [Prep. Ex. 2] | – | – | – | – | Antiviral Activity (ΔTCID₅₀)(log₁₀) (HSV-1 (Miyama strain); [5]): 0.17 (-) log₁₀; Antiviral Activity (ΔTCID₅₀)(log₁₀) (HSV-1 (Miyama strain); [6]): >3.00 (+) log₁₀ |
